Structures can show the parent of a compound that is named as a salt.
Target: T1, SOS1 (Homo sapiens, UniProt Q07889)
T1 sequence (Q07889 1-1333): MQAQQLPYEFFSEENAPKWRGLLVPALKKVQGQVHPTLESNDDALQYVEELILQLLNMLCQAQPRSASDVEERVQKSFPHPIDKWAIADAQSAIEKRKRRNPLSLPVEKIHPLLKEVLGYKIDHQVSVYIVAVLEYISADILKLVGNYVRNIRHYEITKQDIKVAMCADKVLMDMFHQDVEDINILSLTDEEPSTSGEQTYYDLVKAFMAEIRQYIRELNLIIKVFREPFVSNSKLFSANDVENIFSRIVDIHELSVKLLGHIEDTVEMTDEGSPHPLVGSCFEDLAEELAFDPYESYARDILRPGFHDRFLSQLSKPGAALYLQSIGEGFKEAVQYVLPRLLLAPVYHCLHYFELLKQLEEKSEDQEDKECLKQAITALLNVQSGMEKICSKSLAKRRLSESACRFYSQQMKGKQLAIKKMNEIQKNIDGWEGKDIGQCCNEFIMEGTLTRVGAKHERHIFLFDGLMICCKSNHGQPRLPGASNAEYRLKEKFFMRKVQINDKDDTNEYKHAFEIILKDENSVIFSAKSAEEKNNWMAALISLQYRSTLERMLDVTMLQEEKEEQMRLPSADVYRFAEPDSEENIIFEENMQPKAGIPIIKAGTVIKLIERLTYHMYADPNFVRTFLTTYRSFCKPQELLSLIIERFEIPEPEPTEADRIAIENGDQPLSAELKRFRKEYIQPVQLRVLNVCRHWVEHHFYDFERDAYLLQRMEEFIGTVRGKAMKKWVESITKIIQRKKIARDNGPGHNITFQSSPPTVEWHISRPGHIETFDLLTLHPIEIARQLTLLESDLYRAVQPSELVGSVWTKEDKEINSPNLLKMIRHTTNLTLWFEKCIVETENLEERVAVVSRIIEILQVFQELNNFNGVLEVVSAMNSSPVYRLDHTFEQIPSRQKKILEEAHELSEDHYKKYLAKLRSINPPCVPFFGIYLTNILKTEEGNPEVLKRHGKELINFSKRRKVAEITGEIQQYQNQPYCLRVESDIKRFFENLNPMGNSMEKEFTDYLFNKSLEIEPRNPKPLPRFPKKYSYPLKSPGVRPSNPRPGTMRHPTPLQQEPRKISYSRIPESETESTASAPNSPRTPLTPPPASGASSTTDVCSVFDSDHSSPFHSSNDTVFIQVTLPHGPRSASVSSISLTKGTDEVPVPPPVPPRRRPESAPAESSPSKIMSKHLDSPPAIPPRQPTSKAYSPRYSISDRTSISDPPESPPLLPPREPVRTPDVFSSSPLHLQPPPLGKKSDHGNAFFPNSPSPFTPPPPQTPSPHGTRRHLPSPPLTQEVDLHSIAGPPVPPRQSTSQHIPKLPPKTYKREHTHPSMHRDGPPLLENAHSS
Experiment: biochemical

**Q.** For `Cc1c([C@@H](C)Nc2nnc(N(C)C)c3cc(=O)n(C4(C)CC4)cc23)cccc1C(F)(F)F` [Example 64, (R)-1-(dimethylamino)-4-((1-(2-methyl-3-(trifluoromethyl)phenyl)ethyl)amino)-6-(1-methylcyclopropyl) pyrido[3,4-d]pyridazin-7(6H)-one], which IC50 is on record?
**A.** 10.7 nM

**Q.** With `CCN(CC)c1nnc(N[C@H](C)c2cccc(C(F)(F)F)c2C)c2cn(C3CC3)c(=O)cc12` [Example 53, (R)-6-cyclopropyl-1-(diethylamino)-4-((1-(2-methyl-3-(trifluoromethyl)phenyl)ethyl)amino)pyr ido[3,4-d]pyridazin-7(6H)-one] as the molecule, how does the IC50 read?
**A.** 24.7 nM

**Q.** `C[C@@H](Nc1nnc(N2CCN(C3CCC3)CC2)c2cc(=O)n(C3(C)CC3)cc12)c1cccc(C(F)(F)F)c1F` [Example 173, (R)-4-((1-(2-fluoro-3-(trifluoromethyl)phenyl)ethyl)amino)-1-(4-cyclobutylpiperazin-1-yl)-6-(1-methylcyclopropyl) pyrido[3,4-d]pyridazin-7(6H)-one] was tested. Which IC50 did it give?
**A.** 5.3 nM

**Q.** `Cc1cc(N)cc([C@@H](C)Nc2nnc(N3CCN(C4CCCC4)CC3)c3cc(=O)n(C4CC4)cc23)c1F` [Example 148, (R)-4-((1-(5-amino-2-fluoro-3-methylphenyl)ethyl)amino)-1-(4-cyclopentylpiperazin-1-yl)-6-cyclopropylpyrido[3 ,4-d]pyridazin-7(6H)-one] was tested. Which IC50 did it give?
**A.** 6.5 nM

**Q.** `Cc1c(C#N)cccc1[C@@H](C)Nc1nnc(N2CC3CC3C2)c2cc(=O)n(C3CC3)cc12` (stereo partly drawn) [Example 35, 3-((1R)-1-((1-(3-azabicyclo[3.1.0]hexan-3-yl)-6-cyclopropyl-7-oxo-6,7-dihydropyrido[3,4-d]pyridazin-4-yl)amino)ethyl)-2-methylbenzonitrile] was tested. Which IC50 did it give?
**A.** 14.8 nM

**Q.** Which IC50 does the source give for `C[C@@H]1CCCN1c1nnc(N[C@H](C)c2cccc(C(F)F)c2F)c2cn(C3(C)CC3)c(=O)cc12` [Example 28, 4-(((R)-1-(3-(difluoromethyl)-2-fluorophenyl)ethyl)amino)-6-(1-methylcyclopropyl)-1-((R)-2-methylpyrrolidin-1-yl)pyrido[3,4-d]pyridazin-7(6H)-one] here?
**A.** 5.7 nM

**Q.** Which IC50 does the source give for `Cc1c([C@@H](C)Nc2nnc(N3CCC(F)(F)CC3)c3cc(=O)n(C4(C)CC4)cc23)cccc1C(F)(F)F` [Example 65, (R)-1-(4,4-difluoropiperidin-1-yl)-4-((1-(2-methyl-3-(trifluoromethyl)phenyl)ethyl)amino)-6-(1-methylcyclopropyl) pyrido[3,4-d]pyridazin-7(6H)-one] here?
**A.** 61 nM

**Q.** Which IC50 does the source give for `C[C@@H](Nc1nnc(NC2CCN(C)CC2)c2cc(=O)n(C3(C)CC3)cc12)c1cccc(C(F)F)c1F` [Example 123, (R)-4-((1-(3-(difluoromethyl)-2-fluorophenyl)ethyl)amino)-6-(1-methylcyclopropyl)-1-((1-methylpiperidin-4-yl)amino)pyrido[3,4-d]pyridazin-7(6H)-one formate] here?
**A.** 3.8 nM

**Q.** With `C[C@@H](Nc1nnc(N2CC[C@@H](CO)C2)c2cc(=O)n(C3(C)CC3)cc12)c1cccc(C(F)(F)F)c1` [Example 178, 1-((R)-3-(hydroxymethyl)pyrrolidin-1-yl)-6-(1-methylcyclopropyl)-4-(((R)-1-(3-(trifluoromethyl)phenyl)ethyl)amino)pyr ido[3,4-d]pyridazin-7(6H)-one formate] as the molecule, how does the IC50 read?
**A.** 6.3 nM

**Q.** Which IC50 does the source give for `C[C@@H](Nc1nnc(N2CCN(C)CC2)c2cc(=O)n(C3(C)CC3)cc12)c1cccc2c1CCC2(F)F` [Example 208, (R)-4-((1-(1,1-difluoro-2,3-dihydro-1H-inden-4-yl)ethyl)amino)-6-(1-methylcyclopropyl)-1-(4-methylpiperazin-1-yl)pyrido[3,4-d]pyridazin-7(6H)-one] here?
**A.** 4.5 nM

**Q.** With `CC(C)N1CCN(c2nnc(N[C@H](C)c3cccc(C(F)(F)F)c3F)c3cn(C4(C)CC4)c(=O)cc23)CC1` [Example 169, (R)-4-((1-(2-fluoro-3-(trifluoromethyl)phenyl)ethyl)amino)-1-(4-isopropylpiperazin-1-yl)-6-(1-methylcyclopropyl) pyrido[3,4-d]pyridazin-7(6H)-one] as the molecule, how does the IC50 read?
**A.** 4.7 nM

Reference: EP4722213A1, “NITROGEN-CONTAINING FUNCTIONAL GROUP-SUBSTITUTED PYRIDAZINOPYRIDONE DERIVATIVE AND USE THEREOF” (Sichuan Huiyu Pharmaceutical Co., Ltd., priority 2023, dated 2024)
